Laboratory results: EP1602719B1, “Control of transglutaminase catalyzed protein modification by selective irreversible transglutaminase inhibitors” (N-Zyme BioTec GmbH, priority 2004, dated 2005)
Peptide text beside a SMILES is read from it. * marks the point of attachment. Cbz = O=C(OCc1ccccc1)*; Acryloyl = C=CC(=O)*

Target: T1, Meerschweinchenlebertransglutaminase (Cavia cutleri, UniProt P08587)
T1 sequence (P08587 1-690): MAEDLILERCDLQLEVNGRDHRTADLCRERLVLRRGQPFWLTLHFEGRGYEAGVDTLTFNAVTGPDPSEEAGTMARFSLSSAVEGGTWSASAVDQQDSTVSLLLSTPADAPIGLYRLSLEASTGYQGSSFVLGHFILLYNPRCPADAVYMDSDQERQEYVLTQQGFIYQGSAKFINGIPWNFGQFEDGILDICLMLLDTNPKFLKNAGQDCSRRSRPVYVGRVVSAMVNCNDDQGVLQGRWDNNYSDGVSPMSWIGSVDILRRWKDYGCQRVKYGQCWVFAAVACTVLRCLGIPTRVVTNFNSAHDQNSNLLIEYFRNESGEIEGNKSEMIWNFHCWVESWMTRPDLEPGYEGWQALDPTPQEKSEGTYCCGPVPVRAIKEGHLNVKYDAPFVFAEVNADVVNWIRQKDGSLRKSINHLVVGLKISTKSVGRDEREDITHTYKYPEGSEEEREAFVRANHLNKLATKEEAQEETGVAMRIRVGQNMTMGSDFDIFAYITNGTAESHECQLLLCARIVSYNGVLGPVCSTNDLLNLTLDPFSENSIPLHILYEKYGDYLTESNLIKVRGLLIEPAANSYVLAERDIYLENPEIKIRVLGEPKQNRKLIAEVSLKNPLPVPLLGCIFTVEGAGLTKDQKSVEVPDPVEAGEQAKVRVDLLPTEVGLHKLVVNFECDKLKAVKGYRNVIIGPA
Experiment: Transglutaminase-catalysed labelling of recombinant hLeptin with Z-Gln-Gly-CAD-DNS, reaction stopped by inhibitor, RP-HPLC (Beispiel 7)
Format: biochemical, Meerschweinchen
Details: inhibitor 0,5 mM
Procedure: Alle nachfolgend beschriebenen Experimente wurden nach dem gleichen Standardprotokoll durchgeführt. Dabei werden das jeweilige Zielprotein und das farbstofftragende amin- oder glutaminhaltige Substrat in einem geeigneten Puffer vorgelegt und für 5 Min. auf 37°C temperiert. Anschließend wird durch Zugabe von Transglutaminase die Reaktion gestartet. Nach variierenden Inkubationszeiten, durch die jeweils verschiedene Markierungsgrade erreicht werden, wird durch Zugabe eines Inhibitors die Transglutaminase vollständig und irreversibel inaktiviert (Reaktionsabbruch 1). In Kontrollexperimenten wird die Markierungsreaktion durch Abtrennung des ungebundenen, farbstofftragenden Substrates unterbrochen (Reaktionsabbruch 2). Die Abtrennung des ungebundenen Farbstoffes erfolgt unter Normaldruck über eine PD-10-Säule (Amersham Biosciences). Dieses allgemein einsetzbare Verfahren zur schnellen Abtrennung kleiner Moleküle von Makromolekülen wie Proteinen basiert auf dem Prinzip der Gelpermeationschromatographie und kann als das vorteilhafteste Verfahren zur Reaktionskontrolle nach dem Stand der Technik angesehen werden. Andere Verfahren, mit denen die weitere katalytische Markierungsreaktion abgebrochen werden könnte, sind weniger geeignet oder nicht allgemein einsetzbar (z. B. thermische, unspezifische chemische oder affinitätschromatographische Methoden). Die Gelpermeationschromatographie wurde jeweils so schnell wie technisch machbar durchgeführt. Dazu wird auf die vorkonditionierte PD-10-Säule 2,5 ml des Reaktionsvolumens aufgetragen und die Lösung vollständig in das Trennmaterial eingebracht. Anschließend wird das Protein mit 3,5 ml Puffer eluiert. Die niedermolekularen Substanzen verbleiben auf der Säule. Der Gesamtprozess benötigt eine Zeitspanne von mindestens 3 Minuten. Während dieser Zeit kann Transglutaminase weiter auf das Zielprotein einwirken. […]

Inaktivierung der Meerschweinchenlebertransglutaminase (added after 5 Min., GpTGase 0,25 U/ml, pH 8): vollständig
SMILES: C=CC(=O)NCCCC[C@H](NC(=O)OCc1ccccc1)C(=O)NCC(=O)O [Z-Lys(Acryloylamid)-Gly-OH, N^α-Benzyloxycarbonyl-L-lysinyl(ε-acryloyl)glycin] (Cbz-Lys(Acryloyl)-Gly-OH)
weitere Labeling- und Quervernetzungsreaktionen (stopped reaction mixture kept at RT for 30 and 60 Min.): keine weitere Labeling- und Quervernetzungsreaktionen | weitere enzymatische Reaktionen nach Lagerung (stored 10 days at -20°C, then one hour at RT): keine weiteren enzymatischen Reaktionen mehr
